Measured values from patent publication US5624936A, “Inhibitors of farnesyl-protein transferase” (Merck & Co., Inc., priority 1996, dated 1997).
Counter-ions that a name gives are not always drawn.

Molecular target: T1, human FPTase (Homo sapiens, UniProt P49354+P49356)
T1 construct: made in house
Experiment: In vitro inhibition of human farnesyl-protein transferase (FPTase)
Type: biochemical
Settings: 100 nM Ras-CVIM substrate, [3H]-FPP, 30 min; read-out: IC50, inhibitory activity against human FPTase

Row | Compound | IC50
1 | CC[C@H](C)[C@@H](CN1Cc2ccccc2C[C@H]1C(=O)N[C@@H](CCSC)C(=O)O)NC(=O)[C@@H]1CCC(=O)N1 [Example 3, Step B, N-[L-Pyroglutamyl-2(S)-amino-3(S)-methylpentyl]-1,2,3,4-tetrahydro-3(S)-isoquinolinecarbonyl-methionine trifluoroacetate] | < 10 µM
2 | CC[C@H](C)[C@@H](CN1Cc2ccccc2C[C@H]1C(=O)N[C@@H](CCSC)C(=O)O)NC(=O)Cc1c[nH]cn1 [Examples 1. Step G, N-[(1H-imidazol-4-ylacetyl)-2(S)-amino-3(S)-methylpentyl]-1,2,3,4-tetrahydro-3(S)-isoquinolinecarbonyl-methionine trifluoroacetate] | < 10 µM
